From patent US20250186391A1, “ORAL COMPLEMENT FACTOR D INHIBITORS” (BioCryst Pharmaceuticals, Inc., priority 2019, published 2025) come the findings set out here.

Chain of Factor D (P00746 26-253): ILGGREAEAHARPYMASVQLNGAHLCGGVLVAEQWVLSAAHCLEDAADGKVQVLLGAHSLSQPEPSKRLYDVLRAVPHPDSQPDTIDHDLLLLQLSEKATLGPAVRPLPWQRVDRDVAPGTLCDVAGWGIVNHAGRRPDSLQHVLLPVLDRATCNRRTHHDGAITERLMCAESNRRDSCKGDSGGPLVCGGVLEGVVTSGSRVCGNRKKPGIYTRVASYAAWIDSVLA

The target of the experiment is Factor D (Homo sapiens (Human), UniProt P00746). The experiment can be described thus: Factor D esterolytic assay. It is filed as biochemical. The conditions noted are these: Z-Lys-SBzl substrate, 100 mM HEPES, 500 mM NaCl, pH 7.5, 10% DMSO; tested a minimum of three times; read-out: Measured Ki (IC50) Value for Compounds: IC50. In a few lines:
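Buffer was 100 mM HEPES, 500 mM NaCl, pH 7.5 with 10% DMSO. Compound and Factor D were combined, then Z-Lys-SBzl (1.29 mM) was added either at once or following room-temperature incubation. Rates came from DTNB colour at 405 nm minus 690 nm over 600 s, with percent inhibition giving IC50 over at least three tests.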
For `CCCC(C(=O)O)c1ccccc1OCc1nn(C(C)C)c2ccc(-c3cccc(CN)c3)cc12` (stereo not shown) [Compound 246f, 2-(2-((5-(3-(aminomethyl)phenyl)-1-isopropyl-1H-indazol-3-yl)methoxy)phenyl)pentanoic acid], the IC50 lay within 1000 to 10000 nM.

For the molecule `NCc1cccc(-c2ccc3c(COc4ccccc4CC(=O)O)coc3c2)c1` [Compound 94d, 2-(2-((6-(3-(aminomethyl)phenyl)benzofuran-3-yl)methoxy)phenyl)acetic acid], the IC50 is over 10000 nM.

With `COc1ccc(CC(=O)O)c(OCc2c(C)oc3ccc(-c4cccc(CN)n4)cc23)c1` [Compound 245d, 2-(2-((5-(6-(aminomethyl)pyridin-2-yl)-2-methylbenzofuran-3-yl)methoxy)-4-methoxyphenyl)acetic acid], the IC50 is under 1000 nM.

On to `COc1ccc(CC(=O)O)c(OCc2c3cc(-c4cccc(CN)c4)ccc3nn2C(C)C)c1` [Compound 255c, 2-(2-((5-(3-(aminomethyl)phenyl)-2-isopropyl-2H-indazol-3-yl)methoxy)-4-methoxyphenyl)acetic acid], for which the IC50 is under 1000 nM.

Turning to `CC(O)c1oc2ccc(-c3cccc(CN)c3)cc2c1COc1ccccc1CC(=O)O` (stereo not shown) [Compound 125d, 2-(2-((5-(3-(aminomethyl)phenyl)-2-(1-hydroxyethyl)benzofuran-3-yl)methoxy)phenyl)acetic acid], the 50% inhibitory concentration (IC50) was under 1000 nM.

As for `C[C@@H]1CN(Cc2cc(-c3cccc(CN)c3)cc3c(COc4ccccc4CC(=O)O)coc23)C[C@H](C)O1` [Compound 208d, 2-(2-((5-(3-(aminomethyl)phenyl)-7-(((2R,6S)-2,6-dimethylmorpholino)methyl)benzofuran-3-yl)methoxy)phenyl)acetic acid], the IC50 is under 1000 nM.

`COc1ccc(CC(=O)O)c(OCc2coc3c(NCC(C)C)cc(-c4cccc(CN)c4)cc23)c1` [Compound 279c, 2-(2-((5-(3-(aminomethyl)phenyl)-7-(isobutylamino)benzofuran-3-yl)methoxy)-4-methoxyphenyl)acetic acid]: the IC50 was under 1000 nM.

The IC50 is the concentration that gives 50% inhibition.
